Assays:
TNFα mRNA [1] = assay: Cytokine mRNA expression inhibitory ability, TNFα, LPS-treated Raw264.7 cells; type: cell-based; conditions: 1 μM compound 24 hours, then 100 ng/ml LPS 24 hours
Protocol: (§1) Evaluation of cytokine mRNA expression inhibitory ability according to inflammatory response
(§2) In order to identify inhibition of p-p38 MAPK, inhibition of p38 MAPK was identified after treating each compound to Raw264.7 cells obtained by converting macrophages that induces inflammation according to p-p38 MAPK activity cancerous cells. Briefly, Raw264.7 cells were cultured in Dulbecco's modified Eagle Medium supplemented with 10% fetal bovine serum and penicillin/streptomycin (100 U/ml). Raw264.7 cells were treated with 1 μM of Compounds 1 to 5 according to the present disclosure in a culture dish respectively and cultured for 24 hours in a CO2 incubator, and then treated with 100 ng/ml of LPS, followed by additional culture for 24 hours in a CO2 incubator.
(§3) After cell culture was terminated according to the experimental conditions, cells were washed with cold phosphate buffered saline (PBS). The cells were then collected and centrifuged at 1200 rpm for 3 minutes. RNA was extracted according to the method provided in the Hybrid-R total RNA purification kit (GeneAll, 305-101). After measuring the concentration and purity of RNA using Nanodrop, cDNA was synthesized according to the method provided in TOPscript RT DryMIX (Enzynomics, RT200). After a reaction at 95° C. for 3 minutes using SYBR Green Mix along with primer, cDNA was subjected to repetitive reactions 30 times at 95° C. for 10 seconds, at 55° C. for 10 seconds, and at 72° C. for 30 seconds to determine the RNA expression level. The results are shown in Tables 5 and 6 below and FIGS. 1 and 2.

p-p38 MAPK [2] = target: T1, p-p38 MAPK (Mus musculus (Mouse), UniProt P47811); assay: p38 MAPK protein inhibitory ability in cells (p-p38 immunoblot, LPS-treated Raw264.7); type: cell-based; conditions: Raw264.7 cells, 1 μM compound 24 hours, then 100 ng/ml LPS 6 hours
Protocol: Evaluation of p38 MAPK protein inhibitory ability in cells
as §2, with “Raw264.7 cells which are obtained by” for “Raw264.7 cells obtained by”, “MAPK activity into cancerous cells.” for “MAPK activity cancerous cells.”, “culture for 6 hours in” for “culture for 24 hours in”
(§4) After cell culture was terminated according to the experimental conditions, cells were washed with cold phosphate buffered saline (PBS). The cells were then collected and centrifuged at 1200 rpm for 3 minutes. The pellet was lysed with 2X sample buffer (1M Tris-HCl pH 6.8, 50% glycerol, 10% SDS, 2-mercaptoethanol, 1% bromophenol blue) and boiled at 100° C. for 10 minutes. The prepared protein samples were subjected to sodium dodecyl sulfate poly acrylamide gel electrophoresis and transferred to PVDF membrane (Millipore). For a specific binding reaction between the protein in the PVDF membrane and antibody, blocking was performed in a 5% bovine serum albumin (BSA, RMbio) solution. Subsequently, the BSA solution was discarded, and the membrane was washed with PBS-T (0.5% Tween 20 in PBS). The binding reaction of the protein in the membrane and antibody was performed overnight at 4° C. and washed again with PBS-T. Finally, a secondary antibody (Cell signaling Technology) conjugated with horse radish peroxidase (HRP) was diluted in PBS-T and reacted at room temperature for 2 hours. Luminata Forte HRP substrate (Millipore) was used to determine the amount of protein in the membrane, the results of which are shown in Table 4 below.

p38 alpha = p38 alpha (Homo sapiens (Human), UniProt Q16539); assay: p38α MAPK inhibitory ability (peptide/kinase mixture, development reagent, 445/520 nm); type: biochemical; conditions: 1 hour at room temperature
Protocol: Evaluation of p38a mitogen-activated protein kinase (MAPK) inhibitory ability
To determine the ability to inhibit p38 MAPK, Compounds 1 to 5 were diluted to determine the inhibitory effect depending on a concentration. Briefly, the compounds were diluted at concentrations of 1000, 333, 111, 37.0, 12.3, 4.12, 1.37, 0.457, 0.152, and 0.0495 nM, respectively, and then a peptide/kinase mixture (final 7.07-28.3 ng p38 alpha, 2 μM serine/threonine 15, 50 mM HEPES pH 7.0, 0.01% NaN3) and ATP solution were added respectively. After reacting at room temperature for 1 hour, a development reagent was added, followed by a reaction again at room temperature for 1 hour.

TNFα = TNFα inhibitory ability by cellular inflammatory response (supernatant, antibody-coated plate), Raw264.7 cells; type: cell-based; conditions: Mus musculus, 1 μM compound 24 hours, then 100 ng/ml LPS 24 hours, supernatant protein
Protocol: Evaluation of TNFα inhibitory ability by cellular inflammatory response
as §2
After the cell culture was completed according to the experimental conditions, the supernatant was obtained and centrifuged for 3 minutes at 1200 rpm. The centrifuged supernatant was dispensed into an antibody-coated plate, reacted at room temperature for 2 hours, and washed with PBS-T (0.5% tween 20 in PBS). After dispensing detection antibody including HRP, a reaction was performed at room temperature for 1 hour, and the amount of protein was checked at a wavelength of 450 nm, the results of which are shown in Table 7 below.

IL-1β mRNA [3] = assay: Cytokine mRNA expression inhibitory ability, IL-1β, LPS-treated Raw264.7 cells; type: cell-based; conditions: 1 μM compound 24 hours, then 100 ng/ml LPS 24 hours
Protocol: as §1, §2, §3

TNFα mRNA [4] = assay: Cytokine mRNA expression inhibitory ability, TNFα, LPS-treated BV2 cells; type: cell-based; conditions: 1 μM compound 24 hours, then 1000 ng/ml LPS 24 hours
Protocol: (§5) Evaluation of cytokine mRNA expression inhibitory ability by inflammatory response
(§6) In order to identify inhibition of p-p38 MAPK, the inhibition of p38 MAPK was identified by treating each compound to BV2 cells obtained by converting microglia that induces inflammation according to p-p38 MAPK activity in the brain into cancerous cells. Briefly, BV2 cells were cultured in Dulbecco's modified Eagle Medium supplemented with 10% fetal bovine serum and penicillin/streptomycin (100 U/ml). BV2 cells were treated with 1 μM of Compounds 4 to 6 according to the present disclosure in a culture dish respectively and cultured for 24 hours in a CO2 incubator, and then treated with 1000 ng/ml of LPS, followed by additional culture for 24 hours in a CO2 incubator.
(§7) After the cell culture was completed according to the experimental conditions, washing was performed with cold phosphate buffered saline (PBS). The cells were then collected and centrifuged at 1200 rpm for 3 minutes. RNA was extracted according to the method provided in the Hybrid-R total RNA purification kit (GeneAllR), 305-101). After measuring the concentration and purity of RNA using Nanodrop, cDNA was synthesized according to the method provided in TOPscript RT DryMIX (Enzynomics, RT200). […]

p-p38 MAPK [5] = target: T1, p-p38 MAPK; assay: p38 MAPK protein inhibitory ability in normal brain cells (p-p38 immunoblot, primary neurons); type: cell-based, ICR mice
From the text: Evaluation of p38 MAPK protein inhibitory ability in normal brain cells
In order to identify inhibition of p-p38 MAPK in normal cells rather than cancer cells, the inhibition of p38 MAPK was identified by inducing inflammation after treating neuron cells obtained from cerebrum of ICR mice with each compound. In short, neurons were collected from the cerebrum of the embryos of ICR mice 17-18 days after gestation and cultured for 7 days in a neurobasal medium supplemented with 2% B27 supplements, 2 mM glutamine, and penicillin/streptomycin (100 U/ml). Primary neurons were treated with 1 μM of Compounds 4 and 6 according to the present disclosure in a culture dish respectively and cultured for 24 hours in a CO2 incubator, and then treated with 1000 ng/ml of LPS, followed by additional culture for 6 hours in a CO2 incubator.
as §4, with “After the” for “After”, “conditions, washing was performed” for “conditions, cells were washed”, “The cells in the sediment were” for “The pellet was”, “reaction between” for “reaction of”, “Table 9” for “Table 4”

IL-1β mRNA [6] = assay: Cytokine mRNA expression inhibitory ability, IL-1β, LPS-treated BV2 cells; type: cell-based; conditions: 1 μM compound 24 hours, then 1000 ng/ml LPS 24 hours
Protocol: as §5, §6, §7

IL-6 mRNA = assay: Cytokine mRNA expression inhibitory ability, IL-6, LPS-treated BV2 cells; type: cell-based; conditions: 1 μM compound 24 hours, then 1000 ng/ml LPS 24 hours
Protocol: as §5, §6, §7

p-p38 MAPK [7] = target: p-p38 MAPK (Homo sapiens (Human), UniProt Q16539); assay: p38 MAPK protein inhibitory ability in brain-derived cells (p-p38 immunoblot, SH-SY5Y); type: cell-based
Protocol: Evaluation of p38 MAPK protein inhibitory ability in brain-derived cells
In order to identify inhibition of p-p38 MAPK in brain cells, the inhibition of p38 MAPK was identified by inducing inflammation after treating each compound to SH-SYSY cells obtained by converting human neurons into cancerous cells. In short, SH-SY5Y cells were cultured in Minimum essential medium/Eagle's balanced salts supplemented with 10% fetal bovine serum and penicillin/streptomycin (100 U/ml). SH-SY5Y cells were treated with 1 μM of Compounds 4 and 6 according to the present disclosure in a culture dish respectively and cultured for 24 hours in a CO2 incubator, and then treated with 1000 ng/ml of LPS, followed by additional culture for 6 hours in a CO2 incubator.
as §4, with “The cells in the sediment were” for “The pellet was”, “Table 8” for “Table 4”

T1 sequence (P47811 whole entry): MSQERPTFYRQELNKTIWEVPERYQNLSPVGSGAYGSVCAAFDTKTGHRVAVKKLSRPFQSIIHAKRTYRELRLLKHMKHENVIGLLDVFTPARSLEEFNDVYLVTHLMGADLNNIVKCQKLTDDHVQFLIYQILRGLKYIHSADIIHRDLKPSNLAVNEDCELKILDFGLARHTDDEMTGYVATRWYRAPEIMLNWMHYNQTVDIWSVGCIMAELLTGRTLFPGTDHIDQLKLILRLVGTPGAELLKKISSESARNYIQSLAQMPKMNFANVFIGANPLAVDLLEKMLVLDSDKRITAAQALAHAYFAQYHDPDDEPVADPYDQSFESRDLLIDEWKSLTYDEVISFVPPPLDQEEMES
Chain of p38 alpha (Q16539 whole entry): as the sequence (P47811 whole entry) above, with H48L, A263T counted along it
Chain of p-p38 MAPK (Homo sapiens (Human), UniProt Q16539) (Q16539 whole entry): as the sequence (P47811 whole entry) above, with H48L, A263T counted along it

| SMILES | TNFα mRNA inhibition (TNFα mRNA [1]) [%] | inhibition at 1 µM (p-p38 MAPK [2]) [%] | IC50 (p38 alpha) [nM] | inhibition at 1 µM (TNFα) [%] | IL-1β mRNA inhibition (IL-1β mRNA [3]) [%] | TNFα mRNA inhibition (TNFα mRNA [4]) [%] | p38 phosphorylation due to inflammation in normal cells (result in words) (p-p38 MAPK [5]; primary mouse neurons, 1 μM) | inhibition at 1 µM (p-p38 MAPK [5]; primary neurons from cerebrum of ICR mouse embryos, 1 μM compound 24 hours, then 1000 ng/ml LPS 6 hours) [%] | IL-1β mRNA inhibition (IL-1β mRNA [6]) [%] | IL-6 mRNA inhibition (IL-6 mRNA) [%] | p38 phosphorylation in cells derived from human (result in words) (p-p38 MAPK [7]; 1 μM) | inhibition at 1 µM (p-p38 MAPK [7]; 1 μM compound 24 hours, then 1000 ng/ml LPS 6 hours) [%] |
| --- | --- | --- | --- | --- | --- | --- | --- | --- | --- | --- | --- | --- |
| Cc1c(F)cc(C(=O)NC2CC2)cc1-c1ccc(C(=O)c2ccc(OCC(O)CO)cc2)cn1 (stereo not drawn) [Compound 1, N-cyclopropyl-3-(5-(4-(2,3-dihydroxypropoxy)benzoyl)pyridin-2-yl)-5-fluoro-4-methylbenzamide] | 38.1 | 11.3 | 22.3 | 22.1 | 21.4 | – | – | – | – | – | – | – |
| O=C(NC1CC1)c1ccc(Cl)c(-c2ccc(C(=O)c3c[nH]c4ccccc34)cc2)c1 [Compound 2, 6-chloro-N-cyclopropyl-4′-(1H-indole-3-carbonyl)-[1,1′-biphenyl]-3-carboxamide] | 37.6 | 69 | 34.1 | 68.5 | 24.4 | – | – | – | – | – | – | – |
| Cc1c(F)cc(C(=O)NC2CC2)cc1-c1ccc(C(=O)c2c[nH]c3cc(OCC(O)CO)ccc23)cn1 (stereo not drawn) [Compound 3, N-cyclopropyl-3-(5-(6-(2,3-dihydroxypropoxy)-1H-indole-3-carbonyl)pyridin-2-yl)-5-fluoro-4-methylbenzamide] | 39.2 | 39.7 | 34.3 | 16.7 | 12.3 | – | – | – | – | – | – | – |
| Cc1c(F)cc(C(=O)NC2CC2)cc1-c1ccc(C(=O)c2cn(Cc3ccccc3)c3ccccc23)cn1 [Compound 5, 3-(5-(1-benzyl-1H-indole-3-carbonyl)pyridin-2-yl)-N-cyclopropyl-5-fluoro-4-methylbenzamide] | 4.1 | 52.8 | 193 | 23.8 | 3.2 | – | – | – | – | – | – | – |
| Cc1c(F)cc(C(=O)NC2CC2)cc1-c1ccc(C(=O)c2cn(CC(O)CO)c3ccccc23)cn1 (stereo not drawn) [Compound 6, N-cyclopropyl-3-(5-(1-(2,3-dihydroxypropyl)-1H-indole-3-carbonyl)pyridin-2-yl)-5-fluoro-4-methylbenzamide] | – | – | – | – | – | 15.7 | effectively inhibited p38 phosphorylation | 60.7 | 12.6 | 14.4 | effectively inhibited p38 phosphorylation | 22.8 |

From patent US20240270713A1, “NOVEL COMPOUND EXHIBITING THERAPEUTIC EFFECT ON INFLAMMATORY DISEASE AS P38 MAP KINASE INHIBITOR” (PRAZERTHERAPEUTICS INC., priority 2021, published 2024)
